# In patent US9937227B2, “Humanin, analogs and cancer treatment methods and uses thereof” (LOS ANGELES BIOMEDICAL RESEARCH INSTITUTE AT HARBOR-UCLA …, priority 2014, dated 2018):
# Read-outs that look alike come from different tables or passages of the source.
# Assays:
# [1] = tested on: B16 murine melanoma cells; assay: Metastatic lung tumors in mouse B16 melanoma model (Experiments 3 and 4); type: in vivo
# Experimental: (§1) A total of 25 young adult mice (10-12 weeks) were randomly divided into 5 groups (n=5 per group). Five mice were used as control. Twenty mice were inoculated intravenously with B16 murine melanoma cells (2×10^5 cells/mouse). Among these 20 tumor-inoculated mice, 5 mice received no further treatment. After one week, the remaining 15 mice were divided into 3 groups and injected with: 1) HNG daily IP (5 mg/Kg body weight) for 2 weeks; 2) CP (200 mg/Kg body weight IP single injection); 3) combined CP with HNG treatment (same doses as above). All mice were sacrificed 3 weeks after tumor inoculation, and 2 weeks after HNG and/or CP treatment. The animals were sacrificed with 5% pentobarbital (200 mg/kg body weight) IP injection after which blood was collected from the right atrium of the heart. One of the testes from each mouse was immersed fixed in Bouin's solution, and the mice were perfused with saline and subsequently perfuse-fixed with 5% glutaraldehyde in 0.05 M cacodylate buffer (pH 7.4). The lungs were dissected out and post fixed in 5% glutaraldehyde solution for 24 hours and stored in cacodylate buffer at 4° C. for the subsequent tumor count (Lue, et al., 2010; Lue, et al., 2009).
# Experiment 3 was repeated after inoculation of B16 melanoma tumor at week 1 and then treated with the following treatment starting at week 2 (n=5 mice per group): 1). No treatment; 2). HNG IP injections 5 mg/Kg daily; 3) CP 200 mg/Kg single IP injection; 4) HNG 5 mg/Kg/day+CP; 5). HNG IP injections 15 mg/Kg daily; and 6). HNG 15 mg/Kg/day+CP. All animals were euthanized and perfused with 4% paraformaldehyde at the end of week 3. Lungs and testes were collected and processed as in experiment 3. Methods
# B16 melanoma tumors in the lung were quantified by counting the number of tumors on the surface of the lungs under stereomicroscopy (Collisson, et al., 2003; Craft, et al., 2005). The size of the tumor was measured using histomorphometry and expressed as average size of tumor. The appearance of the melanoma cells were reviewed and characterized by an expert pathologist.
# germ cells = conditions: HNG 5 mg/kg/BW IP or CP 200 mg/kg/BW IP, 24 hours
# Experimental: To examine the protective effects of HNG on germ cells, adult mice were treated with vehicle (control); HNG (5 mg/kg/BW, intraperitoneal injection IP); CP (200 mg/kg/BW, IP); and CP+HNG for 24 hours.
# 4T1 mammary cancer = assay: 4T1 mouse mammary cancer model, tumor size and weight; conditions: in vivo
# Experimental: A mouse mammary cancer model was used which utilizes 4T1 cells transfected with the luciferase gene. Growth and size of 4T1 mammary tumors were detected by bioluminescence imaging (IVIS Luminia II, Perkin Elmer, Waltham, Mass.). Mice (n=5 to 7 per group) were inoculated with 1×10^6 4T1 cells into the right third mammary gland, and 7 days later they were left untreated or treated with HNG (5 mg/kg/day IP), CP (100 mg/Kg single IP) or HNG+CP for 14 days. Bioluminescence imaging was conducted at days 7 and 12. Animals were sacrificed and tumors were removed on day 14 after the start of treatment. Mammary tumors were smaller in CP and CP+HNG groups compared to the untreated and HNG-treated animals (Data images not shown).
# male germ cells [2] = type: in vivo, mouse; conditions: B16 tumor-bearing mice; CP 200 mg/Kg single IP, 2 weeks
# Experimental: as §1
# male germ cells [3] = tested on: male germ cells
# testosterone = conditions: with or without EDS pre-treatment
# male germ cells [4] = conditions: 24 hours
# Experimental: Young adult mice (12-13 weeks) were randomly divided into 4 groups with 4 or 5 mice per group and received an IP injection: control (Con) (saline), HN (40 mg/Kg BW), CP (200 mg/Kg BW), and the combination of CP+HN. These experiments were repeated four times. In the CP+HN group, mice received an injection of HN followed by an injection of CP about 15 minutes later. Twenty-four hours after injections animals were sacrificed using 5% pentobarbital (200 mg/kg BW) IP injection. Blood was collected and one testis was removed, weighed and frozen in liquid nitrogen. The mouse was next perfused with saline and then subsequently perfuse-fixed with Bouin's solution as previously described and apoptosis was assessed by TUNEL assay (Lue, et al., 2009).
# For detection of apoptosis in testicular sections, the paraffin embedded testis tissue was cut into 5 micron sections and stained with the TdT-mediated dUTP nick-end labeling assay (TUNEL Apoptosis Detection Kit, Millipore, Billerica, Mass.) to detect apoptosis of germ cells in the testis (Lue, et al., 2009). Testicular sections assayed by TUNEL were examined under a light microscope and the apoptotic germ cells were blindly and manually counted. The seminiferous tubules in the testis section under the microscope were grouped as stages IX-IV (early-late stages of spermatogenesis) and V-VIII (middle stages of spermatogenesis). Germ cell apoptosis was quantified as the number of seminiferous tubules containing apoptotic spermatogonia, spermatoctyes, round spermatids and spermatozoa per 100 seminiferous tubules (Drumond, et al., 2011).
# ovaries = type: in vivo; conditions: HNG 5 mg/kg/day IP or CP 100 mg/Kg single IP, day 14
# Experimental: A mouse mammary cancer model was used which utilizes 4T1 cells transfected with the luciferase gene. Growth and size of 4T1 mammary tumors were detected by bioluminescence imaging (IVIS Luminia II, Perkin Elmer, Waltham, Mass.). Mice (n=5 to 7 per group) were inoculated with 1×10^6 4T1 cells into the right third mammary gland, and 7 days later they were left untreated or treated with HNG (5 mg/kg/day IP), CP (100 mg/Kg single IP) or HNG+CP for 14 days. Animals were sacrificed and both ovaries were removed from each mouse on day 14 after the start of treatment. Serial 5-micrometer sections were made. Every 5th section was examined and the number of primordial, primary, and secondary follicles counted (Kim S Y, et al., 2013; Bristol-Gould S K, et al., 2006; Roti Roti E C, et al., 2012). In addition, TUNEL staining for apoptotic cells and oocytes was quantified (Perez G I, et al., 1997; Ben-Aharon I, et al., 2010).
compound,measurement,setting,value
"O=P1(N(CCCl)CCCl)NCCCO1 (stereo not shown) [CP, cyclophosphamide monohydrate]",number of metastatic tumors on the surface of the lungs vs non-treated tumor-bearing mice,"[1]; Experiment 3, HNG 5 mg/Kg daily IP 2 weeks or CP 200 mg/Kg single IP",decreased number of tumors
same,size of the melanoma metastasis on the surface of the lungs,"[1]; Experiment 3, HNG 5 mg/Kg daily or CP 200 mg/Kg single IP",decreased number of tumors but also tumor size
same,number of lung tumors vs non-treated tumor-bearing mice,"[1]; Experiment 4, HNG 5 mg/kg BW daily or CP 200 mg/Kg single IP",significantly decreased both the number and size of the tumors
same,size of the lung tumors vs non-treated,"[1]; Experiment 4, HNG 5 and 15 mg/kg BW, CP 200 mg/Kg",significantly decreased both the number and size of the tumors
same,lung metastatic melanoma histology (differentiation of melanoma cells),"[1]; HNG 5 mg/kg BW, CP, or combination",minor differentiation
same,germ cell apoptosis vs control,germ cells,significantly increased
same,mammary tumor size and weight,4T1 mammary cancer,smaller
same,germ cell apoptosis compared to control and HNG treated mice,male germ cells [2],further significantly increased
same,"testis weight in comparison with control, non-treated tumor bearing and HNG treated mice",male germ cells [2],significantly decreased
same,germ cell apoptosis compared to control,"male germ cells [3]; early (I-VI) and late (IX-XIV) stages, EDS pre-treated",did not significantly increased
same,germ cell apoptosis compared to control,"male germ cells [3]; early (I-VI) and late (IX-XIV) stages, no EDS, CP 70 mg/kg BW IP, 12 hours",significantly increased
same,CP induced germ cell apoptosis in EDS pre-treated rats vs without EDS,male germ cells [3]; early and late stages,significantly lower
same,germ cell apoptosis compared to control,"male germ cells [3]; middle (VII-VIII) stages, no EDS, CP 70 mg/kg BW",did not increase
same,intratesticular testosterone levels,testosterone,no significant effects
same,serum testosterone levels,testosterone,no significant effects
same,germ cell apoptosis compared to control,"male germ cells [4]; early-late stages of spermatogenesis, CP 200 mg/Kg IP",significantly increased germ cell apoptosis
same,germ cell apoptosis compared to control,"male germ cells [4]; middle stages (V-VIII), CP 200 mg/Kg IP",significant increase in apoptosis
same,germ cell apoptosis compared to control,"male germ cells [4]; testicular cross sections, HN 40 mg/Kg or CP 200 mg/Kg single IP",significantly increased germ cell apoptosis
same,ovarian follicles in representative sections,ovaries,"less secondary, but more atretic follicles"
